Test results reported in PMC10707942, “Polyaromatic Bis(indolyl)methane Derivatives with Antiproliferative and Antiparasitic Activity” (Molecules, 2023).

Assays:
L. major = assay: Leishmanicidal activity, MTT-based assay; assay type: cell-based, Leishmania major; conditions: for IC50: Leishmania major, promastigotes, 72 h, MTT, error reported as σ; for Selectivity Index (SI) L. major: SI = IC50 MRC-5/IC50 L. major
Method: (§1) The biological activity of the bis(indolyl)methane derivatives 2a–c were evaluated on in vitro models of parasites (T. brucei and L. major), human cancer cells (HeLa and HT-29) and human healthy cells (MRC-5). The toxicity of the BIM derivatives was determined through alamarBlue assay (for T. brucei and MRC-5) or MTT assay (for L. major), and the results are expressed as the concentration of the compound that reduces cell viability by 50% calculated through dose-response curves to give half maximal inhibitory concentration (IC50) (see Figures S7–S11).
L. major (MHOM/IL/80/Friedlin) promastigotes were cultured at 28 °C, 5% CO2 in modified RPMI-1640 medium (Invitrogen, Carlsbad, CA, USA) supplemented with 10% hiFBS [45]. Parasites were maintained in culture in their experimental growth phase (below 2 million parasites per mL for T. brucei and 10 million parasites per mL for L. major).
The leishmanicidal activity of the compounds was determined using MTT-based assay (Sigma-Aldrich, St. Louis, MO, USA). The stock solutions of the compounds were prepared in DMSO, and the final DMSO percentage in each well was adjusted to be less than 1%. A total of 4 × 10^6 parasites per mL were incubated at 28 °C in 96-well plates (50 μL/well) alone or in the presence of an increasing concentration of compounds DMSO for 72 h. A total of 10 μL of MTT (5 mg/mL) was added to each well, and parasites were incubated for 4 h at 28 °C. Finally, cells were lysed with 50 μL/well of 20% SDS. The plate was incubated at 37 °C for an extra hour; then, the absorbance was measured with the Infinite F200 plate reader (TECAN Austria, GmbH, Grödig, Austria) at a wavelength of 540 nm. The IC50 was calculated as described above. Data are presented as the average of at least three independent measurements all conducted in triplicate.

[1] = test system: HeLa (human cervical carcinoma); assay: Cytotoxicity in cancer cell line, alamarBlue assay; assay type: cell-based; conditions: for IC50: Homo sapiens, HeLa, 72 h, alamarBlue, error reported as σ; for Selectivity Index (SI) HeLa: SI = IC50 MRC-5/IC50 HeLa
Method: (§2) HeLa (human cervical carcinoma) and HT-29 (human colorectal adenocarcinoma) cell lines were maintained at 37 °C, 5% CO2 in high glucose DMEM (4.5 g/L glucose) supplemented with 10% hiFBS, 100 U/mL penicillin, […] streptomycin, 2 mM L-glutamine and non-essential amino acids (1X). Cells were plated and passaged according to ATCC recommendations and were used for the experiments while in the exponential growth phase.
(§3) Cytotoxicity was measured in MRC-5, HeLa and HT-29 cell lines using alamarBlue® assay (ThermoFisher Scientific). The stock solutions of the compounds were prepared in DMSO, and the final DMSO percentage in each well was adjusted to be less than 1%. A total of 5 × 10^3 cells per mL (MRC-5, HeLa or HT-29 cells) were seeded in 96-well plates (100 μL/well) with 24 h of incubation time before compound addition at 37 °C, 5% CO2. Then, the compounds were added at increasing concentrations (from 0 to 100 μM), and the plates were incubated for 72 h. A total of 20 μL of resazurin solution (110 ng/mL) was added to each well, and cells were incubated for 4 h. Then, cells were lysed with 50 μL/well of 3% SDS. The plate was incubated at 37 °C for an extra hour; then, the fluorescence intensity was measured with the Infinite F200 plate reader (TECAN Austria, GmbH), exciting at 550 nm and recording the emission at 590 nm. The results are expressed as the concentration of compound that reduces cell growth by 50% versus untreated control cells (IC50). Data are presented as the average of at least three independent measurements all conducted in triplicate.

[2] = test system: HT-29 (human colorectal adenocarcinoma); assay: Cytotoxicity in cancer cell line, alamarBlue assay; assay type: cell-based; conditions: for IC50: Homo sapiens, HT-29, 72 h, alamarBlue, error reported as σ; for Selectivity Index (SI) HT-29: SI = IC50 MRC-5/IC50 HT-29
Method: as §2, §3

[3] = test system: MRC-5 cell line (human lung fibroblast); assay: Cytotoxicity in healthy cell line, alamarBlue assay; assay type: cell-based; conditions: MRC5, 72 h, error reported as σ
Method: as §1
MRC-5 cell line (human lung fibroblast) was grown in monolayer at 37 °C, 5% CO2 in DMEM medium (1 g/L glucose) supplemented with 10% hiFBS, 100 U/mL penicillin, […] streptomycin and 2 mM L-glutamine.
as §3

T. brucei = assay: Trypanocidal activity, alamarBlue assay; assay type: cell-based, Trypanosoma brucei; conditions: for Selectivity Index (SI) T. brucei: SI = IC50 MRC-5/IC50 T. brucei; for IC50: Trypanosoma brucei, 72 h, alamarBlue, error reported as σ
Method: The trypanocidal activity of the compounds was assessed using the alamarBlue® assay (ThermoFisher Scientific, Waltham, MA, USA). […] Finally, cells were lysed with 50 μL per well of SDS 3%. The plate was incubated at 37 °C for an extra hour; then, the fluorescence intensity was measured with an Infinite F200 plate reader (Tecan Austria, GmbH, Grödig, Austria), exciting at 550 nm and recording the emission at 590 nm. The results are expressed as the concentration of the compound that reduces cell growth by 50% versus untreated control cells (IC50). Data are presented as the average of at least three independent measurements all conducted in triplicate.

HT-29 cell line = test system: HT-29 cell line; set-up: method as in PMID 30715794; conditions: cited from earlier work
Leishmania donovani = test system: Leishmania donovani; set-up: method as in PMID 18703668, PMID 17922678; conditions: cited from earlier work

Row | Compound | IC50 (L. major) [µM] | Selectivity Index (SI) L. major (L. major) | IC50 [1] [µM] | Selectivity Index (SI) HeLa [1] | IC50 [2] [µM] | Selectivity Index (SI) HT-29 [2] | IC50 [3] [µM] | Selectivity Index (SI) T. brucei (T. brucei) | IC50 (T. brucei) [µM] | IC50 (HT-29 cell line) [µM] | IC50 (Leishmania donovani) [µM]
1 | c1ccc(N(c2ccccc2)c2ccc(C(c3c[nH]c4ccccc34)c3c[nH]c4ccccc34)cc2)cc1 [Compound 2a] | 3.3 ± 0.25 | 10.21 | 37.5 ± 1.86 | 0.90 | 3.93 ± 0.49 | 8.57 | 33.7 ± 3.19 | 10.50 | 3.21 ± 0.04 |  | 
2 | Oc1cccc2ccc(C(c3c[nH]c4ccccc34)c3c[nH]c4ccccc34)nc12 [Compound 2c] | 20.7 ± 1.71 |  | 28.3 ± 5.01 | 0.11 | 71.4 ± 3.99 | 0.05 | 3.25 ± 0.29 |  | 14.66 ± 0.05 |  | 
3 | CN(C)c1ccc(C(c2c[nH]c3ccccc23)c2c[nH]c3ccccc23)c2ccccc12 [Compound 2b] | > 100 | <0.95 | 89.56 ± 0.15 | 1.06 | 25.4 ± 5.23 | 3.73 | 94.9 ± 7.27 | 5.93 | 16 ± 4.44 |  | 
4 | c1ccc2c(Cc3c[nH]c4ccccc34)c[nH]c2c1 [Arundine, 3,3-diindolylmethane] |  |  |  |  |  |  |  |  |  | > 100 | 1.2
